For one data set, the system named is CMV AD169^IE2-YFP. Description: Anti-CMV activity (IC50) of NAPA compounds, AD169 IE2-YFP reporter virus high-content assay in fibroblasts. Type of data set: cell-based, Human cytomegalovirus. The following applies: Human betaherpesvirus 5, AD169, Fibroblast. The protocol: To identify CMV inhibitors, a high-content screening (HCS) early-stage-specific reporter assay using a CMV AD169 yellow-fluorescent protein (YFP) expressing virus (AD169^IE2-YFP) (Gardner et al., Antiviral Res., 113:49-61 (2015)) was developed to screen >112,000 compounds to identify potent inhibitors (IC50<10 μM) of cytomegalovirus having a minimal mammalian cytotoxicity (CC50) of preferably ≥100 μM. As a result, we have identified, isolated, and characterized a novel series of N-arylpyrimidinamines (NAPAs) that inhibit CMV infection. […] Further, the NAPA compounds are broadly effective at inhibiting virus infection of diverse strains and cell types.
The CMV IE1 and IE2 gene products are translated within 3-6 hours post infection (hpi) and function to stimulate viral promoters to initiate transcription of early and late viral genes (Cherrington et al., J. Virol., 63:1435-40 (1989); Meier et al., J. Virol., 71:1246-1255 (1997)). The CMV AD169 variant that expresses a viral protein chimera consisting of IE2-YFP (AD1691E2/YFP) was utilized to quantify virus infection in a high-throughput screen by a robust fluorescent signal localized exclusively to the nucleus (8-24 hpi) (Gardner et al., supra (2015); Cohen et al., Viruses, 8 (10): 295 (2016); Cohen et al., J. Virol., 90:10715-10727 (2016)). Using the AD1691E2-YFP reporter virus assay, a collection of the compound libraries (>112,000 compounds) was screened for inhibitors of the early stages of CMV replication using a confocal fluorescence microscopic plate reader (BioTek Cytation3). Infection was calculated as a percentage of nuclei containing YFP and cycloheximide (8 μM) was used as a positive control. The Z′ factor for the optimized assay was >0.5 which was sufficient to initiate screening.
We evaluated 300 primary hits using an assay funnel designed to prioritize compounds based on antiviral activity, specificity, and drug-like properties. This identified two candidates for hit-to-lead optimization that were not Pan Assay Interference compounds (PAINS) (Baell et al., J. Med. Chem., 53:2719-40 (2010); Capuzzi et al., J. Chem. Inf. Model 57:417-427 (2017); Dahlin et al., Assay Drug Dev. Technol., 14:168-174 (2016)). […] The NAPA series was chosen as the primary hit-to-lead series due to its synthetic accessibility and the >2-log range in potency observed in the preliminary SAR that provides a clear pathway to improving antiviral activity and drug-like properties.

Data set [1] can be described thus: Cytotoxicity (CC50) against Hela cells for 3 d. Type of data set: cell-based. The following applies: human.
Data set [2] in a line: Maximum solubility in water by nephlometry. As to conditions: Maximum solubility in water determined by nephlometry; for solubility kinetic: kinetic from dmso stock. It is filed as physicochemical.
Data set [3] in a line: Murine liver microsome stability. Type of data set: in vitro ADME. As to conditions: % remaining after 30 min at 37° C. in the presence of NADPH. For orientation: Liver microsomes are a subcellular fraction often used to study metabolism.
Another data set deals with CYP3A4 (Homo sapiens, UniProt P08684). The experiment in a line: CYP3A4 inhibition at 10 μM. It is filed as in vitro ADME. As to conditions: % inhibition of CYP3A4 at 10 μM.
Sequence of CYP3A4 (P08684 whole entry, species assumed): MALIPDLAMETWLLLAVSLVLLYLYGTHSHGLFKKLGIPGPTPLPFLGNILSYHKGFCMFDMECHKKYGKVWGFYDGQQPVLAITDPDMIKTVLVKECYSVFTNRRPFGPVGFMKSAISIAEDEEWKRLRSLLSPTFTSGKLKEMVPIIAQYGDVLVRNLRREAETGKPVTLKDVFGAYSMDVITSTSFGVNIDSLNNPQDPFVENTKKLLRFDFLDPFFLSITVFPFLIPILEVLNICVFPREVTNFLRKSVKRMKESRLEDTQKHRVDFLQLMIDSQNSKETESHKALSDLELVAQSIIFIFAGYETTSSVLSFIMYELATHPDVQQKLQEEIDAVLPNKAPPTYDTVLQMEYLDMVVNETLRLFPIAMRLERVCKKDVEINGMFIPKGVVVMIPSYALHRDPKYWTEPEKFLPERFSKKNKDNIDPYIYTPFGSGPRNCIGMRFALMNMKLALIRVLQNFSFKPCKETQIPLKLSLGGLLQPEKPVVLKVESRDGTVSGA
For a further data set, the system named is HCMV strain AD169^R. Description: CMV infection (neutralization) assay, GFP/IE1 readout 24 hpi, AD169^R. It is filed as cell-based, Human cytomegalovirus. The protocol:
(§1) Fibroblasts and ARPE-19 cells (10^4) were plated in 96-well plates (Greiner, Monroe, NC). The following day the cells were pretreated for 1 hour at 37° C. with increasing concentrations of the respective novel NAPA compounds described herein or DMSO in triplicate prior to infection with the respective viruses. At 18 hours post infection (hpi) cells were stained using a rabbit anti-IE1 antibody followed by an anti-rabbit Alexa 647 and measured using a Celigo Cytometer (Parsons et al., Antiviral Res., 193:105124 (2021); Stein et al., Nat. Commun., 10:2699 (2019)). Using the DMSO treated cells as 100% infection, the percent infection of the NAPA compound-treated cells was determined. The half maximal inhibitory (IC50) values were calculated using Prism9's nonlinear fit [inhibitor]-vs-response (four parameters) analysis of these averages and extrapolation to the concentration that would produce 50% infection relative to DMSO treatment.
(§2) To further evaluate the inhibitory properties of MBXC-4302 against CMV, we utilized the AD169 CMV virus strain containing the UL131-UL128 open reading frame of the HCMV strain TR and expressing EGFP (AD169^R) (Wang D. and Shenk T., Proc. Nat. Acad. Sci., USA, 102:18153-18158 (2005)) and TB40/E infection of human fibroblasts (NHDF) and ARPE-19 epithelial cells in the presence of increasing concentration of compound (FIG. 2A-D). Infection was analyzed 24 hours post infection (hpi) by measuring GFP fluorescence encoded by AD169^R or using an anti-IE1 antibody for staining TB40/E infected cells.
NAPA variants with modified groups were evaluated for inhibition of CMV infection in fibroblasts. AD169^R infected fibroblasts were treated with NAPA compounds MBX-4992, MBXC-4325, MBXC-4330, and MBXC-4336 (0-50 μM) and analyzed for infection at 24 hpi (FIG. 6A-D). The infected cells were probed for IE1 as an indication of virus infection.

The next data set relates to HCMV strain TB40/E. Description: CMV infection (neutralization) assay, IE1 immunostain 24 hpi, TB40/E. Type of data set: cell-based, Human cytomegalovirus. The protocol:
as §1, with “The half maximal inhibitory (IC50) values were calculated using Prism9's nonlinear fit [inhibitor]-vs-response (four parameters) analysis of these averages and extrapolation to the concentration that would produce 50% infection relative to DMSO treatment.” left out
as §2

Another data set deals with AD169^R (IE1 expression). The experiment in a line: Western blot (immunoblot) of IE1 expression in AD169^R-infected cells. Type of data set: cell-based, Human cytomegalovirus. As to conditions: NHDF cells, 24 hpi; MBX-4992 1-10 μM, ganciclovir 5 μM, convallotoxin 0.01 μM. The protocol: The molecular weight markers and respective proteins are indicated.
FIGS. 12A and B are Western Blot assays showing that MBXC-4336 limits expression of IE1 in fibroblasts and epithelial cells. Total cell lysates from AD169^R-infected (MOI 0.2) NHDF (A) and ARPE-19 (B) cells pre-treated with DMSO, MBX-4336 (0, 1, 5, 10, or 20 μM), or heparin (50 μg/mL) collected at 48 hpi were subjected to Western blot analysis using a rabbit anti-IE-1 antibody (lanes 1-7) and an anti-GAPDH antibody (lanes 8-14) as a loading control. The molecular weight markers and respective proteins are indicated.
Total cell lysates from virus infected NHDF cells treated with compounds were created through SDS-lysis (10^4/100 uL of 1% SDS) of at least three rounds of heating at 95° C. for 3 min and vigorous agitation. The total cell lysates were resolved using an SDS-polyacrylamide gel (12.5%), transferred to a PVDF membrane using a semi-dry apparatus. The membrane was then incubated with 1% BSA/PBS for 1 hr at room temperature followed by incubation with anti-IE1 and anti-GAPDH. Finally, the respective secondary antibody conjugated with HRP was incubated with membrane followed by detection using ECL reagents (Millipore).
Next, inhibition of the expression of IE1 in AD169^R-infected cells treated with MBX-4992 was examined by immunoblot analysis (FIG. 4E). […] Collectively, these findings further indicate that MBX-4992 effectively prevents the expression of the immediate-early genes during a CMV infection.
On the technique in general: Immunoblotting shows a protein as a band on a membrane.

Converted amounts (≈) assume the structure as drawn.

On to `Cc1nc(Nc2ccc(NC(=O)c3ccco3)cc2)cc(N(C)C)n1` [MBX-4991], for which the IC50 (in general, the midpoint of a concentration-inhibition curve) in the data set with CMV AD169^IE2-YFP turned out to be 2.3 µM. Moreover, the CC50 (commonly the concentration giving 50% cytotoxicity) at 3 d in data set [1] is over 100 µM. The solubility (kinetic) (as a rule, the concentration staying in solution when a stock, usually in DMSO, is diluted into the medium) in data set [2] was over 200 µM. In addition, the MLMS in data set [3] is 65%. Also, the CYP on CYP3A4 came out at 18%.
In the case of `Cc1nc(Nc2ccc(NC(=O)c3cccs3)cc2)cc(N(C)C)n1` [MBXC-4294], the IC50 in the data set with CMV AD169^IE2-YFP was over 40 µM. The CC50 at 3 d in data set [1] came out at 57 µM.
Take `Cc1nc(Nc2ccc(NC(=O)c3ccco3)cc2)cc(N2CCCCC2)n1` [MBXC-4295]: in the data set with CMV AD169^IE2-YFP, the IC50 was found to be 0.46 µM. This compound registered a CC50 at 3 d in data set [1] of 54 µM. In data set [2], this compound displayed a kinetic solubility of 50 µM (≈ 18.9 µg/mL). The MLMS in data set [3] is 36%. This compound displayed a CYP on CYP3A4 of under 10%.
With `Cc1ccc(Nc2cc(Nc3ccc(NC(=O)c4ccco4)cc3)nc(C)n2)cc1` [MBXC-4297], in the data set with CMV AD169^IE2-YFP, the IC50 amounted to 0.37 µM. Besides, the CC50 at 3 d in data set [1] was found to be 21 µM. The compound also displayed a kinetic solubility in data set [2] of 25 µM (≈ 9.99 µg/mL). Further, in data set [3], the MLMS was 44%. For the same compound, on CYP3A4, the CYP was under 10%.
Taken in the same sequence, the figures for `CCNc1cc(Nc2ccc(NC(=O)c3ccco3)cc2)nc(C)n1` [MBXC-4298] were 3.7 µM, 29 µM, 200 µM (≈ 67.5 µg/mL), 64% and 50%.
The compound `Cc1ccc(Nc2nc(C)cc(Nc3ccc(NC(=O)c4ccco4)cc3)n2)cc1` [MBXC-4299] yielded an IC50 in the data set on CMV AD169^IE2-YFP of 0.32 µM. This compound yielded a CC50 at 3 d in data set [1] of 5.5 µM. Further, the MLMS in data set [3] stood at 68%. Further, the CYP at CYP3A4 is recorded as under 10%.
In the data set on CMV AD169^IE2-YFP, `Cc1ccc(Nc2nc(C)cc(Nc3ccc(NC(=O)Nc4cccc(Cl)c4)cc3)n2)cc1` [MBXC-4300] yielded an IC50 of 3.8 µM. In data set [1], half-maximal cytotoxicity (CC50 at 3 d) was put at 2.7 µM. Further, the Sol result in data set [2] is on record as “N/A 3.1 μM”. The MLMS entry in data set [3] is recorded as “N/A 60%”. The CYP result at CYP3A4 is given as “N/A 10%”.
In the data set on CMV AD169^IE2-YFP, `Cc1ccc(Nc2nc(C)cc(Nc3ccc(NS(=O)(=O)c4ccccc4)cc3)n2)cc1` [MBXC-4301] showed an IC50 of 24 µM. Also, half-maximal cytotoxicity in data set [1] (CC50 at 3 d) was put at 11 µM.
Turning to `Cc1nc(Nc2ccc(NC(=O)c3ccco3)cc2)cc(-n2cccn2)n1` [MBXC-4302], the IC50 in the data set on CMV AD169^IE2-YFP was 3.2 µM; in the data set on HCMV strain AD169^R (Human betaherpesvirus 5, AD169, ARPE-19) it was 5.8 µM; with HCMV strain AD169^R (Human betaherpesvirus 5, AD169, NHDF) it was 3 µM; in the data set with HCMV strain TB40/E (Human betaherpesvirus 5, ARPE-19) it was about 5.3 µM; with HCMV strain TB40/E (Human betaherpesvirus 5, NHDF) it was about 5.3 µM. Moreover, in data set [1], the half-maximal cytotoxic concentration (CC50) at 3 d is over 100 µM. Besides, the kinetic solubility in data set [2] is 12.5 µM (≈ 4.5 µg/mL). The MLMS in data set [3] was 62%. Further, the CYP at CYP3A4 is on record as under 10%.
`Cc1cc(Nc2ccccc2)nc(Nc2ccc(NC(=O)c3ccc(Cl)cc3)cc2)n1` [MBXC-4303]: the IC50 in the data set on CMV AD169^IE2-YFP was determined as 20 µM. The compound also came in with a CC50 at 3 d in data set [1] of 7 µM.
`Cc1ccc(Nc2cc(C)nc(Nc3ccc(NC(=O)c4ccco4)cc3)n2)cc1` [MBXC-4304] registered an IC50 with CMV AD169^IE2-YFP of 0.48 µM. The compound also had a CC50 at 3 d in data set [1] of 5.8 µM. For the same compound, the MLMS in data set [3] was 63%. This compound displayed a CYP on CYP3A4 of 16%.
As to `C[C@@H]1O[C@@H](O[C@H]2CC[C@]3(C=O)[C@H]4CC[C@]5(C)[C@@H](C6=CC(=O)OC6)CC[C@]5(O)[C@@H]4CC[C@]3(O)C2)[C@H](O)[C@H](O)[C@H]1O` [convallatoxin, reference compound], the “IE1 expression by immunoblot” value with AD169^R (IE1 expression) is “prevented infection”.
